Legend:
[1] = test system: PDAC TRP53R172H (p53 mut) cells (mouse pancreatic carcinoma); experiment: PDAC allografts, primary tumour volume T/C; assay type: in vivo; details: 200 mg/kg po qd; ratio of average tumour volume treated/vehicle control; p<0.05
Protocol: All procedures involving animals were approved by the Animal Welfare and Ethical Review Body of the Institute of Cancer Research and Cancer Research UK Manchester Institute in accordance with National Home Office regulations under the Animals (Scientific Procedures) Act 1986 and according to the guidelines of the Committee of the National Cancer Research Institute Tumour size was determined by caliper measurements of tumour length, width and depth and volume was calculated as volume=0.5236×length×width×depth (mm).
PDAC allografts: CD1 nu/nu female mice at 6 weeks of age were inoculated subcutaneously in the right flank with 2×10^6 PDAC TRP53R172H (p53 mut) cells at 100 ul suspension per animal. In some examples, the oral dosing by metal gavage commences one day after cells inoculation, at 0.2 ml/20 g bodyweight per animal once daily for 2-4 weeks, with compound dissolved in 5.25% tween20/saline or 5% DMSO/water. In other examples, groups of 7-8 mice were assigned to treatment following stratified allocation of tumour volumes with a median size of circa 100 mm^3. […] Control animals received a similar dosage of vehicle (5.25% tween20/saline). Tumours and weights are measured twice weekly using calipers. At the end of the study the animals are culled, and samples taken, fixed or snap frozen in liquid nitrogen. Frozen samples kept at −80 degree centigrade until being analysed and the fixed samples stained according to the desired marker.
For therapeutic efficacy assessment, the ratio of average tumour volume between compound treated and vehicle control treated (T/C) is calculated. Reduction in tumour volume in the compound treated group compared to vehicle-treated control group results in T/C<1. The efficacy of LOX inhibitors described in this invention, as measured by T/C in a pancreatic cancer model, a colorectal cancer model and a breast cancer model is shown in Table 2 and is significant (p<0.05) for all the data presented.

[2] = test system: MMTV-PyMT breast transgenic model lung metastases; experiment: MMTV-PyMT transgenic mouse breast cancer model, lung metastases quantification T/C; assay type: in vivo; details: 200 mg/kg po qd, treated/vehicle control, p<0.05
Protocol: MMTV-PyMT (Guy et al, 1992) (FVB) female mice were randomized by non-statistical methods to LOX inhibitor treatment groups from day 70 post-birth, when animals had no detectable tumour. Mice were treated daily by oral gavage with LOX inhibitor in vehicle, or daily vehicle (5% DMSO/2.5% Tween20 in water) by oral gavage. Tumour size was determined unblinded by caliper measurements of tumour length, width and depth and volume was calculated as 0.5236×length×width×depth (mm). In all experiments, mice were humanely killed and mammary tumours and lungs were collected when the primary tumours reached ethical limits or signs of ill health.
For lung metastases quantification, all mouse tissue samples were fixed in 10% formalin (Sigma) and embedded in paraffin. Samples were sectioned and hematoxylin and eosin (H&E) stained. Samples were imaged with a Leica CN400 slide scanner. Lung metastases were manually selected using Pen tool in ImageScope. Lung metastases number was counted and area was measured using ImageScope. The investigator was blinded to the experimental groups. The ratio of average metastases surface between compound treated and vehicle control treated (TIC) is calculated. The ratio of average metastases numbers between compound treated and vehicle control treated (T/C) is also calculated. Reduction in metastases area and/or in metastatses number in the compound treated group compared to vehicle-treated control group results in T/C<1. The antimetastatic efficacy of LOX inhibitors described in this invention, as measured by T/C in a model of breast cancer metastasising to lungs is shown in Table 2 and is significant (p<0.05) for all the data presented.

CCOc1ccc(N2C[C@H]3CN(CCCC#N)C[C@@H]2C(C)(C)C3)cc1 [Example 42, 4-((1R,5S)-6-(4-ethoxyphenyl)-9,9-dimethyl-3,6-diazabicyclo[3.2.2]nonan-3-yl)butanenitrile]
T/C PDAC R172H (p53 mut) (mouse pancreatic carcinoma) - primary tumour [1]: 0.44 | T/C MMT-PyMT breast transgenic model - metastases b) Area ([2]; lung metastases area): b) 0.013 | T/C MMT-PyMT breast transgenic model - metastases a) Count ([2]; lung metastases number): a) 0.16

— US12060360B2, “Lysyl oxidase inhibitors” (The Institute of Cancer Research: Royal Cancer Hospital, priority 2017, dated 2024)
